Read-outs that look alike come from different tables or passages of the source.

The subject of one experiment is S. aureus (ATCC 29213). Put plainly: S. aureus (ATCC 29213) MIC/EC50. In kind it is cell-based. The conditions noted are these: Staphylococcus aureus, ATCC29213; S. aureus ATCC 29213; read-out: I) S. aureus (ATCC 29213) MIC/EC50, MIC.
The next experiment relates to T. brucei. Description: Growth inhibition assay of T. brucei cell cultures (Alamar Blue, 48 h). Type of experiment: cell-based. In general terms: Resazurin is reduced to fluorescent resorufin, in cell work by metabolically active cells.
In a further experiment the test system is T. cruzi. Put plainly: T. cruzi growth inhibition EC50. In kind it is cell-based. The conditions noted are these: Trypanosoma cruzi; read-out: C) T. cruzi EC50.
The target in a further experiment is MetRS (S. aureus) (Staphylococcus aureus, UniProt Q5HII6). Description: biochemical. The conditions noted are these: ATP depletion, Kinase-Glo; read-out: H) MetRS (S. aureus) ATP depletion assay using Kinase-Glo with modified cpd dilution method, IC50. Background: In Kinase-Glo more light means more ATP remaining.
Sequence of MetRS (S. aureus) (Q5HII6 whole entry): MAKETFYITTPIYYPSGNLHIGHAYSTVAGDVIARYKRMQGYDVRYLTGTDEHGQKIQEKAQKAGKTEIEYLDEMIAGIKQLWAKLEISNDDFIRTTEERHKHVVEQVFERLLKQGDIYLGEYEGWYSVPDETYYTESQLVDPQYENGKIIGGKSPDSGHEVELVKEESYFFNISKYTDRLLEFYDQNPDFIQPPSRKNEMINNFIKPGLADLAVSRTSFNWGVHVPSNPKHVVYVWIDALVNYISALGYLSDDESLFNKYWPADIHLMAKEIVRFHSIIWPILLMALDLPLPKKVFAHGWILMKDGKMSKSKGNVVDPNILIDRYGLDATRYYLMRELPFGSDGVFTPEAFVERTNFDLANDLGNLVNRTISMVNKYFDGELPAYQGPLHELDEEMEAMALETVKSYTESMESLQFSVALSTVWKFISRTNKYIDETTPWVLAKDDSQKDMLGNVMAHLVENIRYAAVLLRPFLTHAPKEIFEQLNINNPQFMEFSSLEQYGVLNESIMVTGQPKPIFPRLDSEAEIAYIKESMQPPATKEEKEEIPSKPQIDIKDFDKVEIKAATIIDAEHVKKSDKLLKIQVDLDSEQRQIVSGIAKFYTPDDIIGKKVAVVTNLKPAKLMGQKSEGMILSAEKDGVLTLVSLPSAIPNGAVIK
Experiment [1] has as its system S. aureus MRSA (ATCC 43300). Description: S. aureus MRSA (ATCC 43300) MIC/EC50. Type of experiment: cell-based. The conditions noted are these: Staphylococcus aureus; S. aureus MRSA ATCC 43300; read-out: J) S. aureus MRSA (ATCC 43300) MIC/EC50, MIC.
The target of a further experiment is MetRS (T. brucei) (Trypanosoma brucei brucei, UniProt Q38C91). Description: MetRS (T. brucei) ATP depletion assay using Kinase-Glo. In kind it is biochemical.
Sequence of MetRS (T. brucei) (Q38C91 entry or part of it): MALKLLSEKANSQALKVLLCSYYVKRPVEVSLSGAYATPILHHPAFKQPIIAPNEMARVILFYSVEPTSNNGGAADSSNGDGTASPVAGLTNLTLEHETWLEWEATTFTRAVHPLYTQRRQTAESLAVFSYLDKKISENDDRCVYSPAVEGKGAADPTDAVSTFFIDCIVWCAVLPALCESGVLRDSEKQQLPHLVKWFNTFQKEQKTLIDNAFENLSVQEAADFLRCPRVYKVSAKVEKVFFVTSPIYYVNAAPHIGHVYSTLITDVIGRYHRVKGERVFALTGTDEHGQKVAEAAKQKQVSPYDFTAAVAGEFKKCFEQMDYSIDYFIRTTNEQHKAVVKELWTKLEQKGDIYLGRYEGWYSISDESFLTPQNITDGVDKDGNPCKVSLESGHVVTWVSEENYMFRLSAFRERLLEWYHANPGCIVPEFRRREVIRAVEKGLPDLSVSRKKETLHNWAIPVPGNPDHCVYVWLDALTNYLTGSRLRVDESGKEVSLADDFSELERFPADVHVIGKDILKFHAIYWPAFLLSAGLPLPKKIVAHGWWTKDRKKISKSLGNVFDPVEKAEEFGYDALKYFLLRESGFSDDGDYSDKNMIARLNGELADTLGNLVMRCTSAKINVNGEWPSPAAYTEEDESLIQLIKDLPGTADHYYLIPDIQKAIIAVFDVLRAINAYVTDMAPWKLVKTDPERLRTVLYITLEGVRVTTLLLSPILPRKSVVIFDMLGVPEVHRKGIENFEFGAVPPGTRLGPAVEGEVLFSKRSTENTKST
For a further experiment, the system named is L. amaz. Description: L. amaz growth inhibition EC50. The conditions noted are these: read-out: F) L. amaz EC50. Type of experiment: cell-based.
Setting [2] is: Trypanosoma brucei; read-out: B) T. brucei EC50.

As for `O=C(NCc1nc2ccccc2[nH]1)OCCc1ccc(Cl)cc1Cl` [Compound 1701, 2-(2,4-dichlorophenyl)ethyl N-(1H-1,3-benzodiazol-2-ylmethyl)carbamate], the MIC (with S. aureus (ATCC 29213); in experiment [1]) was greater than 10 µg/mL in each case. For the same compound, the EC50 in the experiment on T. brucei (setting [2]) worked out at 1290 nM; with T. cruzi it was 8750 nM. Also, the IC50 stood at 67 nM on MetRS (S. aureus) and 5 nM at MetRS (T. brucei).
`O=C(NCc1nc2ccc(F)nc2[nH]1)OCCc1ccc(Cl)cc1Cl` [Compound 1707, 2-(2,4-dichlorophenyl)ethyl N-({5-fluoro-3H-imidazo[4,5-b]pyridin-2-yl}methyl)carbamate]: the results for the EC50 in the experiment on T. brucei (setting [2]), in the experiment on T. cruzi and with L. amaz were 1610 nM, greater than 10000 nM and greater than 1000 nM, respectively. The concentration for half-maximal inhibition (IC50) turned out to be 37 nM at MetRS (S. aureus) and 26 nM against MetRS (T. brucei).
In the case of `FC(F)(CNCc1cc(Cl)cc(Cl)c1)CNc1nc2cccnc2[nH]1` [Compound 1708, [(3,5-dichlorophenyl)methyl][2,2-difluoro-3-({3H-imidazo[4,5-b]pyridin-2-yl}amino)propyl]amme], the EC50 with T. brucei (setting [2]) is 1560 nM; in the experiment on T. brucei (read-out: B) T. brucei EC50), 893 nM; with T. cruzi it was greater than 5000 nM; in the experiment with L. amaz, greater than 1000 nM. Moreover, the IC50 on MetRS (S. aureus) came to 88 nM; against MetRS (T. brucei), 11 nM.
For the compound `N[C@@H](CC(=O)NCc1nc2ccccc2[nH]1)Cc1ccc(Cl)cc1Cl` [Compound 1720, (R)—N-((1H-benzo[d]imidazol-2-yl)methyl)-3-amino-4-(2,4-dichlorophenyl)butanamide], the MIC (in the experiment with S. aureus (ATCC 29213); in experiment [1]) was greater than 10 µg/mL throughout. Also, the figures for the EC50 in the experiment on T. brucei (setting [2]) and in the experiment with T. cruzi were 848 nM and 3700 nM, respectively. Also, the values for the IC50 at MetRS (S. aureus) and at MetRS (T. brucei) were 181 nM and 70 nM, respectively.
Take `O=C(Cc1cc(Cl)cc(Cl)c1)N1CCCC(c2nc3cc(Cl)ccc3[nH]2)C1` (stereo not drawn) [Compound 1734, 1-(3-(5-chloro-1H-benzo[d]imidazol-2-yl)piperidin-1-yl)-2-(3,5-dichlorophenyl) ethanone]: the MIC (in the experiment on S. aureus (ATCC 29213); in experiment [1]) was greater than 10 µg/mL in each case. In addition, the EC50 in the experiment on T. brucei (setting [2]) was determined as 1400 nM; with T. cruzi it was 4910 nM. Further, the IC50 on MetRS (S. aureus) is 2440 nM; on MetRS (T. brucei), 60 nM.
On to `O=C(Cc1cc(Cl)cc(Cl)c1)N1CCC[C@H](c2nc3cc(Cl)ccc3[nH]2)C1` [Compound 1758, (S)-1-(3-(5-chloro-1H-benzo[d]imidazol-2-yl)piperidin-1-yl)-2-(3,5-dichlorophenyl)ethanone], for which the MIC (with S. aureus (ATCC 29213); in experiment [1]) was greater than 10 µg/mL in each case. In the experiment with T. brucei (setting [2]), the EC50 stood at 4650 nM. The IC50 on MetRS (S. aureus) is 1040 nM; against MetRS (T. brucei), 31 nM.
`O=C(Cc1cc(Cl)cc(Cl)c1)N1CCCC(c2nc3nc(Cl)ccc3[nH]2)C1` (stereo not drawn) [Compound 1762, 1-(3-(5-chloro-1H-imidazo[4,5-b]pyridin-2-yl)piperidin-1-yl)-2-(3,5-dichlorophenyl)ethanone]: the MIC (in the experiment on S. aureus (ATCC 29213); in experiment [1]) was greater than 10 µg/mL in each case. Besides, in the experiment with T. brucei (setting [2]), the EC50 is 1060 nM. Further, the IC50 at MetRS (S. aureus) was 2880 nM; against MetRS (T. brucei), 28 nM.
With `COc1ccc(Oc2cc(NCc3nc4ccc(F)nc4[nH]3)nc(Cl)n2)c(Cl)c1` [Compound 1796, 6-(2-chloro-4-methoxyphenoxy)-2-chloro-N-((5-fluoro-3H-imidazo[4,5-b]pyridin-2-yl)methyl)pyrimidin-4-amine], the figures for the EC50 with T. cruzi and in the experiment on L. amaz were 521 nM and greater than 1000 nM, respectively. In addition, the IC50 at MetRS (S. aureus) amounted to 55 nM; on MetRS (T. brucei), 17 nM.
For `COc1ccc(Oc2cc(NCc3nc4ccc(F)nc4[nH]3)nc(N3CCN(c4cnccn4)CC3)n2)c(Cl)c1` [Compound 1797, 6-(2-chloro-4-methoxyphenoxy)-N-((5-fluoro-3H-imidazo[4,5-b]pyridin-2-yl)methyl)-2-(4-(pyrazin-2-yl)piperazin-1-yl)pyrimidin-4-amine], the EC50 in the experiment with T. cruzi is 432 nM; in the experiment on L. amaz it was greater than 1000 nM. The IC50 was determined as 2 nM at MetRS (S. aureus) and 23 nM against MetRS (T. brucei).
Turning to `Clc1cc(Cl)cc(CN[C@H]2CCCN(c3nc4nc(Cl)ccc4[nH]3)C2)c1` [Compound 1856, (S)-1-(5-chloro-1H-imidazo[4,5-b]pyridin-2-yl)-N-(3,5-dichlorobenzyl) piperidin-3-amine], the EC50 was found to be 38.7 nM in the experiment with T. brucei (setting [2]), 1470 nM with T. cruzi and 4350 nM with L. amaz. Moreover, the IC50 on MetRS (S. aureus) came out at 365 nM; against MetRS (T. brucei), 19 nM.
Consider `CN(CCNCc1cc(Cl)cc(Cl)c1)c1nc2ccc(Cl)nc2[nH]1` [Compound 1893, N-(2-(3,5-dichlorobenzylamino)ethyl)-5-chloro-N-methyl-1H-imidazo[4,5-b]pyridin-2-amine], for which the EC50 is 14.8 nM with T. brucei (setting [2]), 28.2 nM in the experiment on T. brucei (read-out: B) T. brucei EC50), 340 nM in the experiment with T. cruzi and 3780 nM in the experiment on L. amaz. The IC50 at MetRS (S. aureus) was determined as 296 nM; against MetRS (T. brucei) it was 8 nM.
As to `O=c1[nH]c(Cc2ccc(Cl)cc2Cl)cn1Cc1nc2ccccc2[nH]1` [Compound 1907, 3-((1H-benzo[d]imidazol-2-yl)methyl)-5-(2,4-dichlorobenzyl)-1H-imidazol-2(3H)-one], the EC50 is 346 nM in the experiment with T. brucei (setting [2]), 7670 nM in the experiment with T. cruzi and greater than 1000 nM in the experiment with L. amaz. Besides, the IC50 was found to be 54 nM on MetRS (S. aureus) and 19 nM at MetRS (T. brucei).
Regarding `Clc1cc(Br)cc(CN[C@H]2CCCN(c3nc4nc(Cl)ccc4[nH]3)C2)c1` [Compound 1912, (S)—N-(3-bromo-5-chlorobenzyl)-1-(5-chloro-1H-imidazo[4,5-b]pyridin-2-yl)piperidin-3-amine], the EC50 in the experiment on T. brucei (setting [2]) turned out to be 70.6 nM; in the experiment with T. cruzi it was 2250 nM; with L. amaz it was 7730 nM. In addition, the IC50 against MetRS (T. brucei) was 8 nM.
As to `CN(CCNCc1cc(Cl)cc(Cl)c1)c1nc2nc(F)ccc2[nH]1` [Compound 1913, N-(2-{[(3,5-dichlorophenyl)methyl]amino}ethyl)-5-fluoro-N-methyl-1H-imidazo[4,5-b]pyridin-2-amine], the EC50 was 113 nM in the experiment with T. brucei (setting [2]) and greater than 1000 nM in the experiment on L. amaz. The figures for the IC50 on MetRS (S. aureus) and on MetRS (T. brucei) were 691 nM and 26 nM, respectively.
On to `Clc1cc(Cl)cc(CNCC2CCCN2c2nc3nc(Cl)ccc3[nH]2)c1` (stereo not drawn) [Compound 1916, 1-(1-(5-chloro-1H-imidazo[4,5-b]pyridin-2-yl)pyrrolidin-2-yl)-N-(3,5-dichlorobenzyl)methanamine], for which the results for the EC50 with T. brucei (setting [2]) and in the experiment with L. amaz were 480 nM and 9550 nM, respectively. Further, half-maximal inhibition against MetRS (T. brucei) (IC50) required 58 nM.
Take `CN(CCN[C@@H]1CCNc2c(Cl)cc(Cl)cc21)c1nc2nc(Cl)ccc2[nH]1` [Compound 1917, 5-chloro-N-(2-{[(4R)-6,8-dichloro-1,2,3,4-tetrahydroquinolin-4-yl]amino}ethyl)-N-methyl-3H-imidazo[4,5-b]pyridin-2-amine]: the results for the EC50 in the experiment on T. cruzi and in the experiment with L. amaz were 15.7 nM and 663 nM, respectively. Moreover, the figures for the IC50 on MetRS (S. aureus) and against MetRS (T. brucei) were 137 nM and 21 nM, respectively.
Take `CN(CCN[C@@H]1CCNc2c(Cl)cc(Cl)cc21)c1nc2nc(F)ccc2[nH]1` [Compound 1919, (R)—N1-(6,8-dichloro-1,2,3,4-tetrahydroquinolin-4-yl)-N2-(5-fluoro-1H-imidazo[4,5-b]pyridin-2-yl)-N2-methylethane-1,2-diamine]: the EC50 was found to be 6.31 nM with T. brucei (setting [2]), 9.45 nM in the experiment with T. brucei (read-out: B) T. brucei EC50), 88.8 nM in the experiment on T. cruzi and 1640 nM in the experiment with L. amaz. In addition, the IC50 stood at 328 nM at MetRS (S. aureus) and 15 nM against MetRS (T. brucei).

For orientation: EC50 means the concentration that produces a half-maximal response. By IC50 is commonly meant the concentration that inhibits the measured activity by half.

The values above are taken from US10913736B2 (UNIVERSITY OF WASHINGTON, priority 2014, dated 2021).
